According to patent publication US8143419B2, “Trisubstituted 1,2,4-triazoles” (Janssen Pharmaceutica N. V., priority 2006, dated 2012):

How the values were obtained:
[1] = biological target: T1, hα7-wt nAChR (Homo sapiens, UniProt P36544); experiment: Ca2+ flux imaging (FDSS) (Protocol B), PAM activity with choline as agonist; type: cell-based; details: for EC50: "<5" = no top plateau at maximal concentration; for Emax: read-out: % efficacy
T1 construct: expressed in transfected cells
In short: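 Cells stably expressing human wild-type α7 nAChR, loaded with fluo-4AM (2 μM final) up to 120 min in HBSS/10 mM HEPES/5 mM CaCl2/0.1% BSA with 5 mM probenecid. Compounds (0.01–30 μM) added up to 10 min before 100 μM choline; peak fluorescence read on FDSS, potentiation expressed relative to choline-alone response (100%).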

T1 sequence (P36544 23-502): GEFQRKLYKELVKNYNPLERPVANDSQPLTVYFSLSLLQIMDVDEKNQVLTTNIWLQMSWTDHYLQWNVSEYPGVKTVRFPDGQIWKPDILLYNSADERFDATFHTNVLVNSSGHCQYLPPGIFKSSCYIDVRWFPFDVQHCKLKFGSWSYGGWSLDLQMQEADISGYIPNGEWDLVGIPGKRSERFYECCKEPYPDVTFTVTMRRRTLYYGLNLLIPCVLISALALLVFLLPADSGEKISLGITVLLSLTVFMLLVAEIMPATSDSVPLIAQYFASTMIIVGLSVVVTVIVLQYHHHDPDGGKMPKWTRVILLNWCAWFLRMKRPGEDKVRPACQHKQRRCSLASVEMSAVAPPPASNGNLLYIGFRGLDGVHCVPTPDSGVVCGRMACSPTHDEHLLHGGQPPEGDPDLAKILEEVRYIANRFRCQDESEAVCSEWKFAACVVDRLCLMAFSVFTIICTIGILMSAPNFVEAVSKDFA

EC50 [1] [nM]	melting point [°C]	Emax [1] [%]	SMILES
2000	177.1	–	COc1cc(-c2nc(Nc3ccc(F)c(C(F)(F)F)c3)nn2CCO)ccn1 [Compound 90]
501	157.9	–	CCOc1ccc(-c2nc(Nc3ccc(F)c(C(F)(F)F)c3)nn2CCO)cn1 [Compound 91]
2510	126.5	–	FCCn1nc(Nc2ccc(F)c(C(F)(F)F)c2)nc1-c1ccc(C2CC2)nc1 [Compound 96]
> 10000	164.5	–	CNc1cc(-c2nc(Nc3ccc(F)c(C(F)(F)F)c3)nn2C[C@H](C)O)ccn1 [Compound 98]
3160	145.8	–	C[C@H](O)Cn1nc(Nc2ccc(F)c(C(F)(F)F)c2)nc1-c1ccnc(NCC2CC2)c1 [Compound 104]
1000	265	–	CNC(=O)Cn1nc(Nc2ccc(F)c(C(F)(F)F)c2)nc1-c1ccnc(C)c1 [Compound 107]
126	255.1	–	CNC(=O)Cn1nc(Nc2ccc(F)c(C(F)(F)F)c2)nc1-c1ccc(OC)nc1 [Compound 110]
251	236.2	–	CCOc1ccc(-c2nc(Nc3ccc(F)c(C(F)(F)F)c3)nn2CC(=O)NC)cn1 [Compound 111]
2000	256.6	–	CNC(=O)Cn1nc(Nc2ccc(F)c(C(F)(F)F)c2)nc1-c1ccc(NC)nc1 [Compound 113]
631	260.8	–	CNC(=O)Cn1nc(Nc2ccc(F)c(C(F)(F)F)c2)nc1-c1ccncc1NC [Compound 114]
1260	249.5	–	CNC(=O)Cn1nc(Nc2ccc(F)c(C(F)(F)F)c2)nc1-c1ccncc1F [Compound 116]
794	215 to 219.2	974	COc1ccc(-c2nc(Nc3ccc(F)c(C(F)(F)F)c3)nn2CC(=O)NC(C)C)c(OC)c1 [Compound 119]
2000	174	988	CC(C)(O)c1cc(-c2nc(Nc3ccc(F)c(C(F)(F)F)c3)nn2CC(=O)NC2CC2)ccn1 [Compound 122]
200	185.4	–	Cc1ccc(-c2nc(Nc3ccc(F)c(C(F)(F)F)c3)nn2CCC(=O)N(C)C)cn1 [Compound 127]
50.1	177.2	–	CCc1ccc(-c2nc(Nc3ccc(F)c(C(F)(F)F)c3)nn2CCC(=O)N(C)C)cn1 [Compound 128]
100	150.9	–	CN(C)C(=O)CCn1nc(Nc2ccc(F)c(C(F)(F)F)c2)nc1-c1ccc(NC2CC2)nc1 [Compound 133]
3160	217.7	–	CC(C)NC(=O)CCn1nc(Nc2ccc(F)c(C(F)(F)F)c2)nc1-c1ccncc1 [Compound 136]
2510	140.3	–	Cc1nc(CCn2nc(Nc3ccc(F)c(C(F)(F)F)c3)nc2-c2ccncc2)no1 [Compound 141]
200	177.2	–	COc1ccc(Nc2nc(-c3ccnc(C)c3)n(CCC(=O)N(C)C)n2)cc1C(F)(F)F [Compound 144]
1000	241.1	–	CNC(=O)Cn1nc(Nc2cc(OC)cc(C(F)(F)F)c2)nc1-c1ccnc(NC)c1 [Compound 146]
3160	192.2	–	CNC(=O)Cn1nc(Nc2cccc(OC(F)(F)F)c2)nc1-c1ccncc1F [Compound 154]
316	217	–	CNC(=O)Cn1nc(Nc2cccc(OC(F)(F)F)c2)nc1-c1ccc(C2CC2)nc1 [Compound 155]
398	185.8 to 191.3	–	CNC(=O)Cn1nc(Nc2cccc(OC(F)(F)F)c2)nc1-c1ccc2c(c1)OCCO2 [Compound 156]
398	222.4	–	CNC(=O)Cn1nc(Nc2cccc(OC(F)(F)F)c2)nc1-c1ccc2c(c1)OCCN2C [Compound 157]
158	188.7	–	CCNC(=O)Cn1nc(Nc2cccc(OC(F)(F)F)c2)nc1-c1ccc2c(c1)OCCO2 [Compound 158]
126	153.3	–	CC(C)NC(=O)Cn1nc(Nc2cccc(OC(F)(F)F)c2)nc1-c1ccc2c(c1)OCCN2C [Compound 160]
631	192.7 to 195.3	–	COc1ccc(-c2nc(Nc3cccc(OC(F)(F)F)c3)nn2CC(=O)NC2CC2)cc1OC [Compound 163]

The next lines start with the compound.

SMILES	EC50 [1] [nM]	melting point [°C]	Emax [1] [%]
CNc1ccc(-c2nc(Nc3ccc(F)c(C(F)(F)F)c3)nn2CCO)cn1 [Compound 92]	3160	179	–
OCCn1nc(Nc2ccc(F)c(C(F)(F)F)c2)nc1-c1ccc(C2CC2)nc1 [Compound 94]	251	168	–
Cc1cc(-c2nc(Nc3ccc(F)c(C(F)(F)F)c3)nn2C[C@H](C)O)ccn1 [Compound 97]	3160	145.2	–
C[C@H](O)Cn1nc(Nc2ccc(F)c(C(F)(F)F)c2)nc1-c1ccnc(NC2CC2)c1 [Compound 103]	794	176.5	–
C[C@H](O)Cn1nc(Nc2ccc(F)c(C(F)(F)F)c2)nc1-c1cnc2c(c1)OCC2 [Compound 105]	3980	174.4	–
CNC(=O)Cn1nc(Nc2ccc(F)c(C(F)(F)F)c2)nc1-c1ccc(C)nc1 [Compound 108]	2510	247.1	–
CNC(=O)Cn1nc(Nc2ccc(F)c(C(F)(F)F)c2)nc1-c1ccncc1OC [Compound 109]	3980	234.8	–
CNC(=O)Cn1nc(Nc2ccc(F)c(C(F)(F)F)c2)nc1-c1ccnc(NC)c1 [Compound 112]	794	259.6	–
CNC(=O)Cn1nc(Nc2ccc(F)c(C(F)(F)F)c2)nc1-c1ccc(NCCOC)nc1 [Compound 115]	> 10000	207.1	–
CNC(=O)Cn1nc(Nc2ccc(F)c(C(F)(F)F)c2)nc1-c1ccncc1Cl [Compound 117]	1000	199.2	–
CCNC(=O)Cn1nc(Nc2ccc(F)c(C(F)(F)F)c2)nc1-c1ccncc1C [Compound 118]	794	238.6	–
Cc1ccncc1-c1nc(Nc2ccc(F)c(C(F)(F)F)c2)nn1CC(=O)NC1CC1 [Compound 120]	3980	251	–
COc1ncccc1-c1nc(Nc2ccc(F)c(C(F)(F)F)c2)nn1CC(=O)NC1CC1 [Compound 121]	2510	242.4	–
CC(=O)c1cc(-c2nc(Nc3ccc(F)c(C(F)(F)F)c3)nn2CC(=O)NC2CC2)ccn1 [Compound 123]	1260	213.2	–
Cc1cc(-c2nc(Nc3ccc(F)c(C(F)(F)F)c3)nn2CC(=O)N2CCCC2)ccn1 [Compound 124]	2510	172.3	–
CN(C)C(=O)CCn1nc(Nc2ccc(F)c(C(F)(F)F)c2)nc1-c1cccnc1 [Compound 125]	631	190	–
Cc1ncccc1-c1nc(Nc2ccc(F)c(C(F)(F)F)c2)nn1CCC(=O)N(C)C [Compound 126]	1260	171.5	–

SMILES	EC50 [1] [nM]	melting point [°C]	Emax [1] [%]
CC(C)c1ccc(-c2nc(Nc3ccc(F)c(C(F)(F)F)c3)nn2CCC(=O)N(C)C)cn1 [Compound 129]	39.8	176.3	–
CCNc1ccc(-c2nc(Nc3ccc(F)c(C(F)(F)F)c3)nn2CCC(=O)N(C)C)cn1 [Compound 130]	100	201.1	–
COCCNc1ccc(-c2nc(Nc3ccc(F)c(C(F)(F)F)c3)nn2CCC(=O)N(C)C)cn1 [Compound 131]	398	167.7	–
CN(C)C(=O)CCn1nc(Nc2ccc(F)c(C(F)(F)F)c2)nc1-c1ccc(C2CC2)nc1 [Compound 132]	15.8	177.3	–
CN(C)C(=O)CCn1nc(Nc2ccc(F)c(C(F)(F)F)c2)nc1-c1ccnc(NC2CC2)c1 [Compound 134]	20	219.8	–
CC(=O)NCCn1nc(Nc2ccc(F)c(C(F)(F)F)c2)nc1-c1ccncc1 [Compound 138]	> 10000	174.3	–
CCOC(=O)NCCn1nc(Nc2ccc(F)c(C(F)(F)F)c2)nc1-c1ccnc(C)c1 [Compound 139]	1000	160.5	–
CCOC(=O)NCCn1nc(Nc2ccc(F)c(C(F)(F)F)c2)nc1-c1ccnc(C2CC2)c1 [Compound 140]	631	147.2	–
COc1ccc(Nc2nc(-c3ccncc3)n(CCO)n2)cc1C(F)(F)F [Compound 143]	2000	240.4	–
COc1ccc(Nc2nc(-c3ccncc3Cl)n(CCC(=O)N(C)C)n2)cc1C(F)(F)F [Compound 145]	200	211.2	–
Cc1cc(-c2nc(Nc3cccc(OC(F)(F)F)c3)nn2CC(C)O)ccn1 (stereo not drawn) [Compound 148]	5010	130.9	–
CNC(=O)Cn1nc(Nc2cccc(OC(F)(F)F)c2)nc1-c1ccncc1NC [Compound 153]	1580	208.6	–
COc1ccc(-c2nc(Nc3cccc(OC(F)(F)F)c3)nn2CC(=O)NC(C)C)cc1OC [Compound 159]	794	182.5 to 186.1	963
COc1cccc(-c2nc(Nc3cccc(OC(F)(F)F)c3)nn2CC(=O)NC2CC2)c1 [Compound 162]	79.4	196.5 to 206.2	–
Cc1cc(-c2nc(Nc3cccc(OC(F)(F)F)c3)nn2CC(=O)NC2CC2)ccn1 [Compound 164]	2000	190.7	–
CN1CCOc2cc(-c3nc(Nc4cccc(OC(F)(F)F)c4)nn3CC(=O)NC3CC3)ccc21 [Compound 165]	158	168	–
